Measurements from patent US11058756B2, “Compositions and methods of treating autoimmune disease by reducing enterococcus” (YALE UNIVERSITY, priority 2017, dated 2021).

Experiments:
AhR = molecular target: T1, AhR (Mus musculus, UniProt P30561); test: AhR antagonist experiment in E. gallinarum-gavaged (NZWxBXSB)F1 mice; format: in vivo; settings: 4 weeks; for Th17-inducing effects of E. gallinarum (MLN Th17 cell frequency): CH223191 i.p. 300 μg/mouse/day, 5 days a week, ABX-pretreated, E. gallinarum gavaged, FIG. 20; for autoantibodies-inducing effects of E. gallinarum (serum anti-RNA and anti-dsDNA IgG): CH223191 i.p. 5 days a week, FIG. 4O-4P
T1 construct: mice were injected i.p. with 300 mg of CH223191 (a selective AhR antagonist; Sigma-Aldrich) or mock 5 days a week; from tissue; host or cells: whole animal: (NZWxBXSB)F1 hybrid mice
T1 sequence (P30561 10-848): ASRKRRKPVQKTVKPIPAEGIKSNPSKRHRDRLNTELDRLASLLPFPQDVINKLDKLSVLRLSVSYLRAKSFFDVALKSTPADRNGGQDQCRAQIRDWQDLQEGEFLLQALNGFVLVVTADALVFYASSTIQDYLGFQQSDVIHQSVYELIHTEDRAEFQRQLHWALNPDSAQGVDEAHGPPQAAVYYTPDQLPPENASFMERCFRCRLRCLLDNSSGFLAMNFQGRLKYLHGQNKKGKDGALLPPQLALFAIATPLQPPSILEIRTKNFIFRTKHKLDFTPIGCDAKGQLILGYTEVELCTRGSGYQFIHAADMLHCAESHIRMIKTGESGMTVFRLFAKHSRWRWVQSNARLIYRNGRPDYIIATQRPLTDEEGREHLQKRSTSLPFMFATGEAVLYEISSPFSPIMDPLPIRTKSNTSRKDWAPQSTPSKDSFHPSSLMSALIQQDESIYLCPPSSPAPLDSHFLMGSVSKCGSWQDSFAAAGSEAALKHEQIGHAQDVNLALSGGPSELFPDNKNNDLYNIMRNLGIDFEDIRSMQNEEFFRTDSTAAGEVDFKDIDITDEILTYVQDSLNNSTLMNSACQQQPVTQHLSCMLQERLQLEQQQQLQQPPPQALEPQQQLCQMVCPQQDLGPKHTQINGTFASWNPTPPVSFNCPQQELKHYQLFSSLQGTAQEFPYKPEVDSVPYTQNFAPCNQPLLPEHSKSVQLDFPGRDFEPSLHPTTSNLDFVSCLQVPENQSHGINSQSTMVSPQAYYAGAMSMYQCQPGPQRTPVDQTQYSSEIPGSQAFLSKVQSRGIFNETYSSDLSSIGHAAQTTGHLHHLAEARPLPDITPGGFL
Description: (§1) Serum antibodies specific for dsDNA and b2GPI were determined using standardized ELISAs (anti-dsDNA antibody, Abcam; and, Mouse/Rat Apolipoprotein H Antibody, R&D Systems; respectively). Anti-RNA was determined by ELISA using defined positive controls (Human/Mouse RNA Polymerase II Antibody, R&D systems). Anti-ERV gp70 ICs and ERV gp70 protein were determined by OD450 signal comparisons (Evans et al., 1990, J Virol, 64, 6176-6183). For anti-dsDNA ELISAs, DNA-BIND™ (Corning) plates were coated with 100 μg/ml salmon sperm DNA (Fisher Scientific) and blocked in 0.1M PBS, 3.0% BSA, 5.0% FBS. The serum was diluted 1:1000 for the assay and incubated for 1 hour at 37° C. Wells were washed and incubated for 1 hour at 37° C. with rabbit anti-mouse IgG (Fisher Scientific) conjugated to HRP and developed with TMB substrate solution. 2M sulfuric acid (Sigma) solution was used to stop development. The concentration of anti-dsDNA was determined by reading the absorbance at 450 nm/570 nm reference.
(§2) For anti-RNA ELISAs, DNA-BIND™ (Corning) plates were coated with […] yeast RNA (Ambion) and blocked in 0.1M PBS, 0.05% Tween-20, 5.0% FBS. The serum was diluted 1:1000 for the assay and incubated for 1 hour at 37° C. Wells were washed and incubated for 1 hour at 37° C. with rabbit anti-mouse IgG (Fisher Scientific) conjugated to HRP and developed with TMB substrate solution. 2M sulfuric acid (Sigma) solution was used to stop development. The concentration of anti-RNA IgG was determined by reading the absorbance at 450 nm/570 nm reference.
For direct ex vivo intracellular cytokine detection, cells isolated from small intestinal lamina propria, MLN or spleen were immediately treated with GolgiStop (BD Bioscience) and surface-stained in FACS buffer (PBS, 2% bovine serum albumin, 0.2 mg of sodium azide, 2 mM EDTA) for 30 minutes in the dark at room temperature with fluorescently conjugated antibodies specific for CD3, CD4, CD11b, CD11c, CD44, CD62L, CD19, CD45, CD45R (B220), CXCR5, GITR, IL-17, IFN-g, Ly6C, NK1.1, PDCA-1, PD-1 and PSGL-1. After staining for surface antigens, some B cells and T cells were stained for intracellular cytokines using intracellular cytokine fixation buffer (eBioscience) and fluorescently conjugated antibodies specific for IL-17, IFN-g and FoxP3 (eBioscience) for 30 minutes in the dark at room temperature. Cell viability was assessed with Zombie NIR Fixable Viability Kit (BioLegend).
(NZWxBXSB)F1 mice were treated with broad-spectrum antibiotics (vancomycin, ampicillin, neomycin and metronidazole) from 10 weeks to 14 weeks of age. 24 hours later mice were gavaged with E. gallinarum every week for 4 weeks. […]

(NZWxBXSB)F1 mice [1] = test: Oral antibiotics in drinking water: mortality, clinical outcome, proteinuria and organ histology in the autoimmune hybrid model; format: in vivo, mouse
Description: 6-week-old male (NZWxBXSB)F1 mice and C57BL/6J mice were used in this study except if noted otherwise. (NZWxBXSB)F1 were bred by mating NZW/LaJ females with BXSB/MpJ males obtained from Jackson Laboratory (Bar Harbor, Me., USA). Parental littermates of (NZWxBXSB)F1 were randomly mixed with littermates from other parental cages 21 days after birth to equilibrate the microbiomes from different cages and parental origin. All mice were maintained in a specific-pathogen-free environment. (NZWxBXSB)F1 mice were provided with water and a standard laboratory diet ad libitum (2018 Harlan Teklad, South Easton, Mass., USA). They were supplied with hardwood chips as bedding and were housed in a temperature-controlled, air-conditioned room on a 12-hr light-dark cycle. Germ-free (GF) C57BL/6 mice were kept under sterile conditions in CBC's (Class Biologically Clean, Madison, Wis., USA) Quad flexible film isolators (Softwall), exposed to a 12-hr light/dark cycle and provided standard, autoclaved tap water and mouse chow (2018S Harlan Teklad, South Easton, Mass., USA) ad libitum. To exclude a Th17 bias, a PCR for segmented filamentous bacteria (SFB) was performed on fecal DNA from all mice involving Th17 studies. Fecal SFB detection at 6-8 weeks of age that correlates with ileal SFB colonization was performed as described (Barman et al., 2008, Infect Immun, 76, 907-915; Kriegel et al., 2011, Proc Natl Acad Sci USA, 108, 11548-11553). All Th17 data was derived from SFB-negative animals.
(§3) Mice were cohoused for 3 to 4 weeks before antibiotic treatment to allow for equilibration of the microbiota. Single antibiotic or broad-spectrum antibiotic administration consisted of metronidazole (1 g/liter; Fisher Scientific), neomycin (1 g/liter; Fisher Scientific), ampicillin (1 g/liter; Sigma) and vancomycin (0.5 g/liter; Acros Organics) in the drinking water for up to 22 weeks or a targeted regiment for 2 weeks and then replaced with regular water for the duration of the experiment. For broad-spectrum antibiotic experiments (vancomycin, ampicillin, metronidazole, and neomycin combined), sweetener (Equal, 4 g/L) was added to both the antibiotics and control water due to the metallic taste of metronidazole. Twenty-four hours after cessation of antibiotic water, mice were administered 1×10^6 CFUs of vancomycin-resistant E. gallinarum via oral gavage, isolated from liver tissue of a vancomycin-treated mouse that continued to show signs of autoimmune disease (high-level resistance was confirmed by vanC gene PCR). E. gallinarum was grown at 37° C. in Gifu Anaerobic Broth (HIMEDIA Laboratories) to early stationary phase under anaerobic conditions (82% N2, 15% CO2, 3% H2 by volume) in an anaerobic chamber and diluted in PBS to 10^7 CFUs.
Samples were obtained at autopsy and fixed in 10% neutral formalin, and histological sections were stained with hematoxylin and eosin (H&E) and scored in a blinded fashion. Glomerulonephritis was scored on a scale of 0-4 based on the intensity and extent of histopathological changes (Klopfleisch, 2013, BMC Vet Res, 9, 123). A grade of 0 was given to kidneys without glomerular lesions; grade 1 consisted of minimal thickening of the mesangium; grade 2 contained noticeable increases in both mesangial and glomerular cellularity; grade 3 was characterized by the preceding conditions with superimposed inflammatory exudates and capsular adhesions; and grade 4 consisted of obliterated glomerular architecture in greater than 70% of glomeruli. […]

(NZWxBXSB)F1 mice [2] = test: Serum ELISAs for anti-dsDNA, anti-RNA, anti-β2GPI IgG, ERV gp70 protein and anti-ERV gp70 immune complexes; format: in vivo, mouse; settings: single antibiotic in drinking water; 16 weeks of age; FIG. 1B-1C
Description: as §3, §1, §2
For anti-b2GPI ELISAs, Corning® 96-well EIA/RIA easy Wash™ clear flat-bottom polystyrene high-bind microplates were coated with […] recombinant b2GPI/ApoH (R&D Systems) and blocked in Pierce Protein-Free (PBS) Blocking Buffer (Thermo Scientific). The serum was diluted 1:100 for the assay and incubated at room temperature for 2 hours on a shaker. Wells were washed and incubated while shaking for 30 minutes at room temperature with goat anti-mouse IgG (Fisher Scientific) conjugated to HRP and developed with TMB substrate solution. 2M sulfuric acid (Sigma) solution was used to stop development. The concentration of anti-b2GPI was determined by reading the absorbance at 450 nm/650 nm reference. […]

E. gallinarum = test: Assessment of bacterial translocation and tissue burden (anaerobic tissue cultures, CFU); format: in vivo, mouse; settings: (NZWxBXSB)F1 mice, antibiotics in drinking water; 16-18 weeks of age; FIG. 1K-1N
Description: Mice were cohoused for 3 to 4 weeks before antibiotic treatment to allow for equilibration of the microbiota. Single antibiotic or broad-spectrum antibiotic administration consisted of metronidazole (1 g/liter; Fisher Scientific), neomycin (1 g/liter; Fisher Scientific), ampicillin (1 g/liter; Sigma) and vancomycin (0.5 g/liter; Acros Organics) in the drinking water for up to 22 weeks or a targeted regiment for 2 weeks and then replaced with regular water for the duration of the experiment. For broad-spectrum antibiotic experiments (vancomycin, ampicillin, metronidazole, and neomycin combined), sweetener (Equal, 4 g/L) was added to both the antibiotics and control water due to the metallic taste of metronidazole. […] E. gallinarum was grown at 37° C. in Gifu Anaerobic Broth (HIMEDIA Laboratories) to early stationary phase under anaerobic conditions (82% N2, 15% CO2, 3% H2 by volume) in an anaerobic chamber and diluted in PBS to 10^7 CFUs.
14-, 16- and 18-week-old mice underwent sterile laparotomy and nose, mouth, small intestine (luminal and adherent fractions), mesenteric veins, mesenteric lymph nodes (MLN), liver and spleen were aseptically collected in BBL Mycoflask Thioglycollate (Fluid) Prepared Media (BD Diagnostic Systems) and incubated for 72 hours in anaerobic conditions at 37° C. Gifu Media Agar plates were streaked with the content from the BBL Mycoflask Thioglycollate and incubated for 48 hours in an anaerobic chamber at 37° C. Colony Formation Units (CFU) were counted and concentration determined per milligram of tissue. Single colonies were grown in Gifu anaerobic media for 48 hours in an anaerobic chamber at 37° C. and aliquots from each sample were collected and centrifuge for 10 minutes at 10000×g. DNA was extracted from bacterial pellets using DNeasy Blood and Tissue kit (Qiagen) and submitted to PCR amplification of the 16S region and Sanger sequencing. In addition, purified DNA was used for eubacterial, Enterococcus genus and Enterococcus gallinarum PCR assays.

[3] = listed as AHR-selective antagonist

Cc1ccccc1N=Nc1ccc(NC(=O)c2ccnn2C)c(C)c1 [CH223191]
Th17-inducing effects of E. gallinarum (MLN Th17 cell frequency) (AhR): reverses | Th17-inducing effects of E. gallinarum (MLN Th17 cell frequency) (AhR; [3]): abrogated | autoantibodies-inducing effects of E. gallinarum (serum anti-RNA and anti-dsDNA IgG) (AhR): reverses | autoantibodies-inducing effects of E. gallinarum (serum anti-RNA and anti-dsDNA IgG) (AhR; [3]): abrogated

CC1(C)S[C@@H]2[C@H](NC(=O)[C@H](N)c3ccccc3)C(=O)N2[C@H]1C(=O)O [ampicillin]
Mortality ((NZWxBXSB)F1 mice [1]; single antibiotic in drinking water from 6 weeks of age, followed for 30 weeks or until death, FIG. 1A): prevented | autoimmune manifestations (proteinuria, organ histology scores) ((NZWxBXSB)F1 mice [1]; single antibiotic in drinking water, FIG. 1D-1I): prevented | lupus-related autoantibodies (serum anti-dsDNA and anti-RNA IgG) ((NZWxBXSB)F1 mice [2]): prevented

neomycin
clinical outcomes ((NZWxBXSB)F1 mice [1]; neomycin 1.0 g/L in drinking water): did not alter | Translocation (bacterial growth in mesenteric veins, MLN, liver, spleen) (E. gallinarum): only to a lesser degree
